The record followed here is ChEMBL document CHEMBL4229459, “An efficient synthetic route for preparation of antimycobacterial wollamides and evaluation of their in vitro and in vivo efficacy” (Bioorg Med Chem Lett, 2018).

Values after ≈ are worked out from the molar mass of the structure shown. Residues, ends and D or L forms follow the SMILES beside them.

For series [1], the system named is Mycobacterium tuberculosis. The series can be described thus: Antimycobacterial activity against Mycobacterium tuberculosis H37Rv incubated for 6 days under shaking condition by resazurin dye based fluorescence assay. It is filed as functional. The settings on record: 144 h.
Series [2] has as its system HepG2. The experiment in a line: Cytotoxicity against human HepG2 cells after 48 hrs by CellTiter-Glo luminescence assay. The class given is cell-based. The settings on record: HepG2, 48 h. On the technique in general: ATP-based viability assays read luminescence as a measure of living cells.
A short description of series [3]: Kinetic aqueous solubility of the compound by charged aerosol detection method. It is filed as physicochemical. The settings on record: buffer; read-out: Kinetic_solubility.
A short description of series [4]: Intrinsic clearance in mouse liver microsomes. The class given is ADME, microsome.
Series [5] is described as follows: Intrinsic clearance in human liver microsomes. It is filed as ADME, microsome. In general terms: Microsomes from liver hold many membrane-bound enzymes, among them those of drug oxidation.
A short description of series [6]: Permeability of the compound by PAMPA. It is filed as ADME. The settings on record: read-out: permeability. For orientation: The PAMPA barrier holds no transporters, so it reflects passive diffusion.
Series [7] is described as follows: Cmax in C57BL/6J mouse at 5 mg/kg, ip. It is filed as ADME, organism-based. Further details: dose 5 mg/kg, route intraperitoneal. The settings on record: in vivo.
Series [8] is described as follows: Kinetic aqueous solubility of the compound at pH 7.4 phosphate buffered saline after 1 hr by CLND method. The settings on record: read-out: Kinetic_solubility. The class given is physicochemical.
Series [9] concerns Mus musculus. The experiment in a line: Dose normalized AUC (0 to 6 hrs) in C57BL/6J mouse at 25 mg/kg, ip. It is filed as ADME, organism-based. The settings on record: in vivo.
Series [10] deals with Mycobacterium tuberculosis. The experiment in a line: Antimycobacterial activity against Mycobacterium tuberculosis H37Rv infected in C57BL/6J mouse assessed as log10 CFU reduction in bacterial lung count at 5 mg/kg, ip administered once daily for 8 days measured post last dose relative to control. The class given is functional.
Series [11] concerns Mycobacterium tuberculosis. The experiment in a line: Antimycobacterial activity against Mycobacterium tuberculosis H37Rv infected in human THP1 cells treated prior to infection measured after 4 days by luciferase reporter gene assay. The note with it: THP-1, 96 h. It is filed as functional, organism-based.
The nature of series [12]: Intrinsic clearance in human liver microsomes at […] pretreated for 45 mins followed by NADPH addition by LC-MS/MS analysis. The class given is ADME, microsome.
The test system of series [13] is Mus musculus. The series can be described thus: Dose normalized AUC (0 to 6 hrs) in C57BL/6J mouse at 5 mg/kg, ip. It is filed as ADME, organism-based. The note with it: in vivo.
In series [14] the test system is Mus musculus. The series can be described thus: Toxicity in C57BL/6J mouse assessed as body weight loss at 25 mg/kg, ip after 24 hrs by Irwin test. It is filed as organism-based. The note with it: in vivo.
A short description of series [15]: Cmax in C57BL/6J mouse at 25 mg/kg, ip. The settings on record: in vivo. It is filed as ADME, organism-based. On the set-up: dose 25 mg/kg, route intraperitoneal.
Series [16] can be described thus: Permeability of the compound at pH 7.4 at […] incubated for 3 hrs under shaking condition by HPLC method. The note with it: not told, read-out: permeability. The class given is ADME.
A short description of series [17]: AUC (0 to 6 hrs) in C57BL/6J mouse at 25 mg/kg, ip. The class given is ADME, organism-based. Further details: dose 25 mg/kg, time < 6 hr, route intraperitoneal. The settings on record: in vivo.
For series [18], the system named is Mus musculus. The experiment in a line: Toxicity in C57BL/6J mouse assessed as behavioral changes at 5 to 25 mg/kg, ip by Irwin test. It is filed as organism-based. The settings on record: in vivo.
A short description of series [19]: AUC (0 to 6 hrs) in C57BL/6J mouse at 5 mg/kg, ip. The class given is ADME, organism-based. Further details: dose 5 mg/kg, time < 6 hr, route intraperitoneal. The settings on record: in vivo.
Series [20] is described as follows: Kinetic aqueous solubility of the compound by CLND method. It is filed as physicochemical. The note with it: buffer; read-out: Kinetic_solubility.
Series [21] in a line: Intrinsic clearance in mouse liver microsomes at […] pretreated for 45 mins followed by NADPH addition by LC-MS/MS analysis. The class given is ADME, microsome.
The test system of series [22] is Mycobacterium tuberculosis. The series can be described thus: Antimycobacterial activity against Mycobacterium tuberculosis H37Rv infected in C57BL/6J mouse assessed as log10 CFU reduction in bacterial lung count at 30 mg/kg, po administered once daily for 8 days measured post last dose relative to control. The class given is functional.

The MIC is the lowest concentration that inhibits growth of the organism. For orientation: IC50 means the point on the concentration scale where inhibition reaches its midpoint. As to `CC(C)C[C@@H]1NC(=O)[C@H](Cc2c[nH]c3ccccc23)NC(=O)[C@@H](CCCN)NC(=O)[C@H](CC(=O)NC2CCCCC2)NC(=O)[C@H](C(C)C)NC(=O)[C@@H](CC(C)C)NC1=O`, the minimum inhibitory concentration (MIC) in [1] stood at 5 µM (≈ 4.11 µg/mL). Moreover, it took 50.1 µM to reach half-maximal inhibition in [2] (IC50).

As for `CC(C)C[C@@H]1NC(=O)[C@H](Cc2c[nH]c3ccccc23)NC(=O)[C@@H](CCCN)NC(=O)[C@H](CC(=O)N2CCCCC2)NC(=O)[C@H](C(C)C)NC(=O)[C@@H](CC(C)C)NC1=O`, the solubility kinetic in series [3] stood at 107 µM (≈ 86.5 µg/mL). Moreover, the values for the CLH in [4] and in [5] were less than 0.48 mL/min/g and 1.9 mL/min/g, respectively. Besides, 20 µM (≈ 16.2 µg/mL) was the least that counted as inhibitory in series [1] (MIC). The 50% inhibitory concentration (IC50) in series [2] is greater than 100 µM. Moreover, the Papp in [6] was less than 1 ×10⁻⁶ cm/s.

What is called Cmax is the peak of the concentration-time curve. In general, AUC(0-t) refers to the area under the concentration-time curve up to a stated or last time point. A high value points to more exposure. Regarding `CC[C@H](C)[C@@H]1NC(=O)[C@@H](CC(C)C)NC(=O)[C@H](CC(C)C)NC(=O)[C@H](Cc2c[nH]c3ccccc23)NC(=O)[C@@H](CCCN)NC(=O)[C@H](CC(N)=O)NC1=O`, the Cmax in series [7] came to 2170 ng/mL; in series [15] it was 6330 ng/mL. In addition, the solubility kinetic at 1 h in series [8] was greater than 235 µM. The AUC/dose in series [9] amounted to 1063.8 ng·h/mL/mg/kg; in series [13], 957 ng·h/mL/mg/kg. The CLH was less than 0.48 mL/min/g in [4] and 1.87 mL/min/g in [12]. For the same molecule, in series [10], the FC is recorded as -0.2. Besides, the figures for the IC50 in series [11] and in series [2] were 0.8 µM and 50.1 µM, respectively. The molecule also came in with an MIC in [1] of 1.1 µM (≈ 0.829 µg/mL). The results for the Activity in [14] and in [18] were 10% and “Non-Toxic”, respectively. In addition, the Papp at 3 h in series [16] is less than 1 ×10⁻⁶ cm/s. Moreover, the exposure AUC(0-t) at 6 h in series [17] came to 26600 ng·h/mL; in series [19], 4780 ng·h/mL.

For `CC(C)C[C@@H]1NC(=O)[C@H](Cc2c[nH]c3ccccc23)NC(=O)[C@@H](CCCN)NC(=O)[C@H](CC(=O)NCc2ccccc2)NC(=O)[C@H](C(C)C)NC(=O)[C@@H](CC(C)C)NC1=O`, in series [3], the solubility kinetic was greater than 353 µM. Besides, the CLH in series [4] was 0.73 mL/min/g; in series [5], 0.88 mL/min/g. In series [1], this molecule came in with an MIC of 10 µM (≈ 8.3 µg/mL). The molecule also returned an IC50 in [2] of 39.8 µM. Moreover, in [6], the Papp is less than 1 ×10⁻⁶ cm/s.

In the case of `CC[C@@H](C)[C@@H]1NC(=O)[C@@H](CC(C)C)NC(=O)[C@H](CC(C)C)NC(=O)[C@H](Cc2c[nH]c3ccccc23)NC(=O)[C@@H](CCCN)NC(=O)[C@H](CC(N)=O)NC1=O`, the CLH is less than 0.48 mL/min/g in series [4] and 0.87 mL/min/g in series [5]. For the same molecule, the half-maximal inhibitory concentration (IC50) amounted to 0.8 µM in series [11] and 50.1 µM in [2]. Further, the minimal inhibitory concentration (MIC) in series [1] is 1.1 µM (≈ 0.829 µg/mL). Besides, the solubility kinetic in series [20] came out at 177 µM (≈ 133 µg/mL). For the same molecule, the Papp in [6] is less than 1 ×10⁻⁶ cm/s.

On to `CCCCNC(=O)C[C@@H]1NC(=O)[C@H](C(C)C)NC(=O)[C@@H](CC(C)C)NC(=O)[C@H](CC(C)C)NC(=O)[C@H](Cc2c[nH]c3ccccc23)NC(=O)[C@@H](CCCN)NC1=O`, for which the solubility kinetic in [3] stood at 146 µM (≈ 116 µg/mL). Further, the CLH in [4] is 1.19 mL/min/g; in [5], 1.69 mL/min/g. The same molecule came in with an MIC in [1] of 10 µM (≈ 7.96 µg/mL). The IC50 in series [2] came out at 63.1 µM. In series [6], the Papp is less than 1 ×10⁻⁶ cm/s.

In the case of `CC(C)C[C@@H]1NC(=O)[C@H](Cc2c[nH]c3ccccc23)NC(=O)[C@@H](CCCN)NC(=O)[C@H](CC(=O)N2CCC(Oc3ccc(OC(F)(F)F)cc3)CC2)NC(=O)[C@H](C(C)C)NC(=O)[C@@H](CC(C)C)NC1=O`, the solubility kinetic at 1 h in [8] came out at 20 µM (≈ 19.7 µg/mL). Moreover, the CLH in series [4] is less than 0.48 mL/min/g; in [5] it was 0.4 mL/min/g. This molecule registered an MIC in series [1] greater than 80 µM. Besides, the concentration for half-maximal inhibition (IC50) in series [2] turned out to be 31.6 µM. Further, in series [6], the Papp worked out at 8.7 ×10⁻⁶ cm/s.

With `CC[C@H](C)[C@@H]1NC(=O)[C@@H](CC(C)C)NC(=O)[C@H](CC(C)C)NC(=O)[C@H](Cc2c[nH]c3ccccc23)NC(=O)[C@@H](CCCNC(=N)N)NC(=O)[C@H](CC(N)=O)NC1=O` (HELM PEPTIDE1{I.N.[dR].W.L.[dL]}$PEPTIDE1,PEPTIDE1,1:R1-6:R2$$$V2.0), the figures for the highest concentration (Cmax) in series [7] and in series [15] were 1470 ng/mL and 3260 ng/mL, respectively. In addition, in [8], the solubility kinetic at 1 h was greater than 238 µM. The AUC/dose in series [9] was found to be 586.1 ng·h/mL/mg/kg; in series [13] it was 1258.6 ng·h/mL/mg/kg. The FC in series [10] is recorded as -0.2. Also, the concentration for half-maximal inhibition (IC50) in [11] stood at 0.2 µM; in series [2] it was 50.1 µM. The same molecule had a minimum inhibitory concentration (MIC) in series [1] of 0.6 µM (≈ 0.478 µg/mL). The CLH is 7.44 mL/min/g in series [12] and 1.01 mL/min/g in [21]. Moreover, the Activity is reported as 10% in [14] and “Non-Toxic” in series [18]. Further, the AUC(0-t) at 6 h in [17] came out at 14700 ng·h/mL; in series [19], 6290 ng·h/mL.

Consider `CC(C)C[C@@H]1NC(=O)[C@H](Cc2c[nH]c3ccccc23)NC(=O)[C@@H](CCCN)NC(=O)[C@H](CC(N)=O)NC(=O)[C@H](C(C)C)NC(=O)[C@@H](CC(C)C)NC1=O` (HELM PEPTIDE1{[NCCC[C@@H](N[*:1])C(=O)[*:2]].W.L.[dL].V.N}$PEPTIDE1,PEPTIDE1,1:R1-6:R2$$$V2.0), for which the solubility kinetic at 1 h in series [8] was found to be 204 µM (≈ 151 µg/mL). Further, the IC50 was determined as 1.26 µM in series [11] and 50.1 µM in series [2]. Also, the MIC in series [1] is 0.6 µM (≈ 0.444 µg/mL). For the same molecule, the CLH in series [12] is 0.97 mL/min/g; in series [21], less than 0.5 mL/min/g. For the same molecule, in series [16], the Papp at 3 h is less than 0.65 ×10⁻⁶ cm/s.

For the molecule `COc1c(N2C[C@@H]3CCCN[C@@H]3C2)c(F)cc2c(=O)c(C(=O)O)cn(C3CC3)c12` [MOXIFLOXACIN], the FC in series [22] is 3.4.
